Results: PubChem BioAssay AID248 (DTP/NCI, 2004)
“And” between values parts separate entries of the source, which are not always exact repeats. Equal entries are not always repeated. Toxic doses and inconclusive results are not listed.

System: L1210 leukemia ip in BDF1 mice, survival T/C
Assay: NCI In Vivo Anticancer Drug Screen. Data for tumor model L1210 Leukemia (intraperitoneal) in B6D2F1 (BDF1) mice
Conditions: endpoint: mean survival time, higher = longer survival
Method in brief: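 Mice bearing the transplanted tumor received compound or vehicle. Survival of the treated group was divided by that of the vehicle-treated control group to give the ratio.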

[1] = dose: 100.0 mg/kg/injection, schedule: Q04DX003 (ip), vehicle: acetone
[2] = dose: 200.0 mg/kg/injection, schedule: Q04DX003 (ip), vehicle: acetone
[3] = dose: 400.0 mg/kg/injection, schedule: Q04DX003 (ip), vehicle: acetone
[4] = dose: 100.0 mg/kg/injection, schedule: Q04DX002 (ip), vehicle: Klucel (hydroxypropylcellulose) (HPC)
[5] = dose: 200.0 mg/kg/injection, schedule: Q04DX002 (ip), vehicle: Klucel (hydroxypropylcellulose) (HPC)
[6] = dose: 400.0 mg/kg/injection, schedule: Q04DX002 (ip), vehicle: Klucel (hydroxypropylcellulose) (HPC)
[7] = dose: 25.0 mg/kg/injection, schedule: Q04DX003 (ip), vehicle: saline with Tween-80
[8] = dose: 50.0 mg/kg/injection, schedule: Q04DX003 (ip), vehicle: saline with Tween-80
[9] = dose: 200.0 mg/kg/injection, schedule: Q01DX009 (ip), vehicle: saline with Tween-80
[10] = dose: 400.0 mg/kg/injection, schedule: Q01DX009 (ip), vehicle: saline with Tween-80
[11] = dose: 100.0 mg/kg/injection, schedule: Q01DX001 (ip), vehicle: saline
[12] = dose: 200.0 mg/kg/injection, schedule: Q01DX001 (ip), vehicle: saline
[13] = dose: 400.0 mg/kg/injection, schedule: Q01DX001 (ip), vehicle: saline
[14] = dose: 100.0 mg/kg/injection, schedule: Q01DX009 (ip), vehicle: Klucel (hydroxypropylcellulose) (HPC)
[15] = dose: 200.0 mg/kg/injection, schedule: Q01DX009 (ip), vehicle: Klucel (hydroxypropylcellulose) (HPC)
[16] = dose: 400.0 mg/kg/injection, schedule: Q01DX009 (ip), vehicle: Klucel (hydroxypropylcellulose) (HPC)
[17] = dose: 100.0 mg/kg/injection, schedule: Q01DX001 (ip), vehicle: carboxymethylcellulose (CMC)
[18] = dose: 400.0 mg/kg/injection, schedule: Q01DX001 (ip), vehicle: carboxymethylcellulose (CMC)
[19] = dose: 12.5 mg/kg/injection, schedule: Q01DX009 (ip), vehicle: saline
[20] = dose: 25.0 mg/kg/injection, schedule: Q01DX009 (ip), vehicle: saline

## c1ccc2nc3ccccc3c-2cc1
[1]
  T/C: 95 % of control
[2]
  T/C: 98 % of control
[3]
  T/C: 95 % of control

## C=CCOC(=O)Nc1cccc2ccccc12
[4]
  T/C: 91 % of control
[5]
  T/C: 94 % of control
[6]
  T/C: 94 % of control

## Cc1ccc(Cl)cc1NC(=O)Nc1ccc(F)c([N+](=O)[O-])c1
dose: 12.5 mg/kg/injection, schedule: Q01DX009 (ip), vehicle: saline with Tween-80
  T/C: 95 % of control and 90 % of control
dose: 25.0 mg/kg/injection, schedule: Q01DX009 (ip), vehicle: saline with Tween-80
  T/C: 88 % of control and 92 % of control
[7]
  T/C: 90 % of control
dose: 50.0 mg/kg/injection, schedule: Q01DX009 (ip), vehicle: saline with Tween-80
  T/C: 92 % of control
[8]
  T/C: 87 % of control
dose: 100.0 mg/kg/injection, schedule: Q04DX002 (ip), vehicle: saline with Tween-80
  T/C: 96 % of control and 89 % of control
[9]
  T/C: 93 % of control and 100 % of control
dose: 200.0 mg/kg/injection, schedule: Q04DX002 (ip), vehicle: saline with Tween-80
  T/C: 101 % of control and 91 % of control
[10]
  T/C: 93 % of control and 104 % of control
dose: 400.0 mg/kg/injection, schedule: Q04DX002 (ip), vehicle: saline with Tween-80
  T/C: 93 % of control and 94 % of control

## Nc1cc(Cl)c2ncn(C3OC(CO)C(O)C3O)c2n1 (stereo not given)
[11]
  T/C: 98 % of control
dose: 100.0 mg/kg/injection, schedule: Q01DX005 (ip), vehicle: saline
  T/C: 110 % of control
[12]
  T/C: 101 % of control
dose: 200.0 mg/kg/injection, schedule: Q01DX005 (ip), vehicle: saline
  T/C: 115 % of control
[13]
  T/C: 114 % of control

## CCOC(=O)NNC(=S)NCc1ccccc1
[14]
  T/C: 102 % of control
[15]
  T/C: 98 % of control

## Cc1nc(Br)c(C(O)c2ccccc2)n1C (stereo not given)
[14]
  T/C: 100 % of control and 103 % of control
[4]
  T/C: 101 % of control and 103 % of control
dose: 100.0 mg/kg/injection, schedule: Q04DX003 (ip), vehicle: Klucel (hydroxypropylcellulose) (HPC)
  T/C: 93 % of control
[15]
  T/C: 95 % of control and 109 % of control
[5]
  T/C: 101 % of control and 103 % of control
dose: 200.0 mg/kg/injection, schedule: Q04DX003 (ip), vehicle: Klucel (hydroxypropylcellulose) (HPC)
  T/C: 97 % of control
[16]
  T/C: 95 % of control and 117 % of control
[6]
  T/C: 98 % of control and 100 % of control
dose: 400.0 mg/kg/injection, schedule: Q04DX003 (ip), vehicle: Klucel (hydroxypropylcellulose) (HPC)
  T/C: 95 % of control

## O=C(O)CN(CCN(CC(=O)O)CC(=O)O)CCN(CC(=O)O)CC(=O)O
[17]
  T/C: 93 % of control
[18]
  T/C: 96 % of control

## C=CCN(CC=C)C(=O)Nc1ccc(C(=O)N/N=C/c2cccc(OC)c2OC)cc1
[14]
  T/C: 103 % of control and 88 % of control
[4]
  T/C: 95 % of control and 105 % of control
[15]
  T/C: 100 % of control and 88 % of control
[5]
  T/C: 94 % of control and 101 % of control
[16]
  T/C: 95 % of control
[6]
  T/C: 97 % of control and 105 % of control

## CCCCCCC[CH2][Sn](=[O])[CH2]CCCCCCC
dose: 3.12 mg/kg/injection, schedule: Q01DX009 (ip), vehicle: saline with Tween-80
  T/C: 95 % of control
dose: 6.25 mg/kg/injection, schedule: Q01DX009 (ip), vehicle: saline with Tween-80
  T/C: 100 % of control
[1]
  T/C: 102 % of control

## NC1CC[N-]CC1.NC1CC[N-]CC1.[Cl][Pt+2]([Cl])([Cl])[Cl]
[19]
  T/C: 101 % of control
[20]
  T/C: 101 % of control
dose: 50.0 mg/kg/injection, schedule: Q01DX009 (ip), vehicle: saline
  T/C: 95 % of control
dose: 50.0 mg/kg/injection, schedule: Q04DX003 (ip), vehicle: saline
  T/C: 106 % of control
dose: 100.0 mg/kg/injection, schedule: Q01DX009 (ip), vehicle: saline
  T/C: 101 % of control
dose: 100.0 mg/kg/injection, schedule: Q04DX003 (ip), vehicle: saline
  T/C: 104 % of control

## CC1(C)C2CCC(O)(C(=O)O)C1C2 (stereo not given)
dose: 50.0 mg/kg/injection, schedule: Q01DX001 (ip), vehicle: carboxymethylcellulose (CMC)
  T/C: 106 % of control
[17]
  T/C: 91 % of control
dose: 200.0 mg/kg/injection, schedule: Q01DX001 (ip), vehicle: carboxymethylcellulose (CMC)
  T/C: 91 % of control
[18]
  T/C: 100 % of control

## CCC[CH2][Sn](=[O])[CH2]CCC
dose: 1.5 mg/kg/injection, schedule: Q01DX001 (ip), vehicle: saline with Tween-80
  T/C: 90 % of control
dose: 3.0 mg/kg/injection, schedule: Q01DX001 (ip), vehicle: saline with Tween-80
  T/C: 100 % of control
dose: 6.0 mg/kg/injection, schedule: Q01DX001 (ip), vehicle: saline with Tween-80
  T/C: 107 % of control

## CN(Cc1cnc2nc(N)nc(N)c2n1)c1c(Cl)cc(C(=O)NC(CCC(=O)O)C(=O)O)cc1Br (stereo not given)
dose: 12.5 mg/kg/injection, schedule: Q01DX Z (ip), vehicle: saline
  T/C: 162 % of control
dose: 25.0 mg/kg/injection, schedule: Q01DX Z (ip), vehicle: saline
  T/C: 196 % of control
dose: 50.0 mg/kg/injection, schedule: Q01DX Z (ip), vehicle: saline
  T/C: 241 % of control and 267 % of control
dose: 200.0 mg/kg/injection, schedule: Q01DX Z (ip), vehicle: saline
  T/C: 101 % of control

## COc1ccc2nc(C)oc2c1
[1]
  T/C: 97 % of control
[2]
  T/C: 95 % of control
[3]
  T/C: 97 % of control

## Clc1cc(-c2ccccc2Br)nc2ccccc12
[11]
  T/C: 90 % of control
[12]
  T/C: 90 % of control
[13]
  T/C: 88 % of control

## O=S(=O)(/C=C\c1ccccc1)/C=C/c1ccccc1
[7]
  T/C: 96 % of control
[8]
  T/C: 94 % of control
dose: 100.0 mg/kg/injection, schedule: Q04DX003 (ip), vehicle: saline with Tween-80
  T/C: 92 % of control

## COC(=O)c1ccccc1-c1c(C)cccc1[N+](=O)[O-]
dose: 100.0 mg/kg/injection, schedule: Q01DX009 (ip), vehicle: saline with Tween-80
  T/C: 105 % of control
[9]
  T/C: 90 % of control
[10]
  T/C: 100 % of control

## c1ccc2c[n+]3cc4ccccc4cc3cc2c1
dose: 6.25 mg/kg/injection, schedule: Q01DX009 (ip), vehicle: saline
  T/C: 101 % of control
[19]
  T/C: 104 % of control
[20]
  T/C: 104 % of control
dose: 35.0 mg/kg/injection, schedule: Q01DX009 (ip), vehicle: saline
  T/C: 95 % of control

## CC12C=CC(=O)C=C1CCC1C2C(O)CC2(C)C1CCC2(O)C(=O)CSc1ncnc2nc[nH]c12 (stereo not given)
dose: 60.0 mg/kg/injection, schedule: Q01DX015 (ip), vehicle: saline
  T/C: 92 % of control
dose: 90.0 mg/kg/injection, schedule: Q01DX015 (ip), vehicle: saline
  T/C: 100 % of control
dose: 100.0 mg/kg/injection, schedule: Q01DX001 (sc), vehicle: steriod suspending solution
  T/C: 112 % of control
dose: 135.0 mg/kg/injection, schedule: Q01DX015 (ip), vehicle: saline
  T/C: 92 % of control
dose: 200.0 mg/kg/injection, schedule: Q01DX001 (sc), vehicle: steriod suspending solution
  T/C: 112 % of control
dose: 200.0 mg/kg/injection, schedule: Q01DX015 (ip), vehicle: saline
  T/C: 92 % of control
dose: 400.0 mg/kg/injection, schedule: Q01DX001 (sc), vehicle: steriod suspending solution
  T/C: 97 % of control

## COc1nn(C)c(=O)c2cccnc12
dose: 75.0 mg/kg/injection, schedule: Q01DX001 (ip), vehicle: saline
  T/C: 96 % of control
dose: 150.0 mg/kg/injection, schedule: Q01DX001 (ip), vehicle: saline
  T/C: 98 % of control
